Measured values reported in patent US20150266850A1 (E.I.DU PONT DE NEMOURS AND COMPANY, priority 2012, published 2015).
Marks after values point to notes of the source that are not given here.

Experiments:
Type in all cases: in vivo
Conditions in all cases: 100 = 100% disease control
Septoria nodorum = test: Test D: wheat glume blotch, preventive spray on wheat seedlings, visual disease rating
Method in brief: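 Preventive test: wheat seedlings sprayed to run-off with compound suspension (acetone/water with 250 ppm Trem 014; 200 ppm, some at 40 or 50 ppm), inoculated with Septoria nodorum next day. Held 48 h saturated at 20° C, then 7 days at 20° C; visual rating 0-100% disease control versus controls.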

[1] = tested on: Erysiphe graminis f. sp. tritici; test: Test A: wheat powdery mildew, preventive spray on wheat seedlings, visual disease rating
Method in brief: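 Wheat seedlings sprayed to run-off with compound in acetone/water with 250 ppm Trem 014 (200 ppm ≈ 800 g/ha; some at 40 or 50 ppm), inoculated next day with spore dust. After 8 days at 20° C, disease control rated visually, 0–100% relative to controls.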

Botrytis cinerea = test: Test E: tomato botrytis, preventive spray on tomato seedlings, visual disease rating
Text: General protocol for preparing test suspensions for Tests A-E: the test compounds were first dissolved in acetone in an amount equal to 11% of the final volume and then suspended at the desired concentration (in ppm) in acetone and purified water (50/50 mix by volume) containing 250 ppm of the surfactant Trem® 014 (polyhydric alcohol esters). The resulting test suspensions were then used in Tests A-E. Spraying a 200 ppm test suspension to the point of run-off on the test plants was the equivalent of a rate of 800 g/ha.
The test suspension was sprayed to the point of run-off on tomato seedlings. The following day the seedlings were inoculated with a spore suspension of Botrytis cinerea (the causal agent of tomato botrytis) and incubated in saturated atmosphere at 20° C. for 48 h, and then moved to a growth chamber at 27° C. for 3 additional days, after which time disease ratings were visually made.
Results for Tests A-E are given in Table A. In the Table, a rating of 100 indicates 100% disease control and a rating of 0 indicates no disease control (relative to the controls). A dash (-) indicates no test results. All results are for 200 ppm except where followed by an “*”, which indicates 40 ppm or “**”, which indicates 50 ppm.

[2] = tested on: Puccinia recondita f sp. tritici; test: Test B: wheat leaf rust, preventive spray on wheat seedlings, visual disease rating
Method in brief: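 Test suspension in acetone/water 50/50 with 250 ppm Trem® 014, sprayed to run-off on wheat seedlings at 200 ppm (≈800 g/ha), or 40 or 50 ppm where marked. Inoculated next day with spores, held 24 h saturated at 20° C, then 7 days at 20° C; disease control rated visually, 0–100 versus controls.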

Septoria tritici = test: Test C: wheat leaf blotch, preventive spray on wheat seedlings, visual disease rating
Method in brief: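 Compounds in acetone (11% of final volume) suspended in acetone/water 50/50 with 250 ppm Trem® 014; 200 ppm (≈800 g/ha), some at 40 or 50 ppm, sprayed to run-off. Septoria tritici inoculated next day; 48 h saturated at 24° C., then 19 days at 20° C.; visual rating, 0–100% control vs untreated.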

Row | Structure (SMILES) | Test D disease control rating (Septoria nodorum; 40 ppm (*)) | Test A disease control rating ([1]; 40 ppm (*)) | Test E disease control rating (Botrytis cinerea; 40 ppm (*)) | Test B disease control rating ([2]; 40 ppm (*)) | Test C disease control rating (Septoria tritici; 40 ppm (*)) | Test D disease control rating (Septoria nodorum; 200 ppm) [%] | Test A disease control rating ([1]; 200 ppm) [%] | Test E disease control rating (Botrytis cinerea; 200 ppm) [%] | Test B disease control rating ([2]; 200 ppm) [%] | Test C disease control rating (Septoria tritici; 200 ppm) [%]
1 | COC(=O)NCc1cc(-c2ccn(-c3ccc(Br)cc3Cl)n2)ccc1C [Cmpd 61] | 100* % | 100* % | 91* % | 100* % | 94* % | – | – | – | – | –
2 | COC(=O)NCc1cc(-c2ccn(-c3ccc(Br)cc3Br)n2)ccc1C [Cmpd 62] | 100* % | 100* % | 100* % | 100* % | 97* % | – | – | – | – | –
3 | COC(=O)NCc1cc(-c2ccn(-c3ccc(Cl)cc3Br)n2)ccc1C [Cmpd 63] | 100* % | 100* % | 99* % | 100* % | 96* % | – | – | – | – | –
4 | COC(=O)NCc1cc(-c2ccn(-c3ccc(F)cc3F)n2)ccc1C [Cmpd 64] | 100* % | 100* % | 74* % | 100* % | 97* % | – | – | – | – | –
5 | COC(=O)NCc1cc(-c2ccn(-c3ccc(Cl)cc3F)n2)ccc1C [Cmpd 65] | 100* % | 100* % | 94* % | 100* % | 98* % | – | – | – | – | –
6 | COC(=O)NCc1cc(-n2ncc(-c3ccc(F)cc3F)n2)ccc1C [Cmpd 67] | 100* % | 100* % | 33* % | 100* % | 98* % | – | – | – | – | –
7 | COC(=O)NCc1cc(-n2ncc(-c3ccc(OC)cc3Cl)n2)ccc1C [Cmpd 68] | 100* % | 100* % | 77* % | 100* % | 99* % | – | – | – | – | –
8 | COC(=O)NCc1cc(-n2ccc(-c3ccc(C#N)cc3C)n2)ccc1C [Cmpd 69] | 100* % | 100* % | 0* % | 100* % | 66* % | – | – | – | – | –
9 | COC(=O)NCc1cc(-n2ccc(-c3ccc(Cl)cc3O)n2)ccc1C [Cmpd 71] | – | – | – | – | – | 100 | 90 | 8 | 99 | 51
10 | COC(=O)NCc1cc(-n2ccc(-c3ccc(Cl)cc3OCC#N)n2)ccc1C [Cmpd 72] | 100* % | 93* % | 0* % | 100* % | 90* % | – | – | – | – | –
11 | CCOc1ccc(-c2ccn(-c3ccc(C)c(CNC(=O)OC)c3)n2)c(Cl)c1 [Cmpd 76] | 100* % | 100* % | 0* % | 100* % | 99* % | – | – | – | – | –
12 | CCOc1cc(Cl)ccc1-c1ccn(-c2ccc(C)c(CNC(=O)OC)c2)n1 [Cmpd 77] | 100* % | 100* % | 0* % | 100* % | 99* % | – | – | – | – | –
13 | COC(=O)NCc1cc(-n2ccc(-c3ccc(Cl)cc3Br)n2)ccc1C [Cmpd 80] | 100* % | 97* % | 81* % | 100* % | 58* % | – | – | – | – | –
14 | COC(=O)NCc1cc(-n2ncc(-c3ccc(Cl)cc3Cl)n2)ccc1C [Cmpd 86] | 100* % | 99* % | 54* % | 100* % | 93* % | – | – | – | – | –
15 | COC(=O)NCc1cc(-n2ncc(-c3ccc(F)cc3Cl)n2)ccc1C [Cmpd 87] | 100* % | 98* % | 61* % | 100* % | 88* % | – | – | – | – | –
